# EP4644375A1, “SUBSTITUTED HYDROQUINOLINES FOR THE TREATMENT OF GLIOBLASTOMA MULTIFORME” (Molius Saglik Teknolojileri Anonim Sirketi, priority 2024, dated 2025)
# Key:
# [1] = test system: U138-MG human glioma cell; test: Cell proliferation analysis (MTT); assay type: cell-based; details: Homo sapiens, 48 h, 10 µM, two days, MTT
# Description: (§1) U87-MG and U138-MG human glioma cell, were incubated with 10% fetal bovine serum (FBS) (Gibco, 10500-064), 1% L-glutamine (Gibco, 25030-024), in a humidified incubator with 5% CO2 at 37 °C. The cells were contained in DMEM High Glucose (Gibco, 41966-029) supplemented with 1% penicillin-streptomycin (P/S) (Gibco 15140-122) solution. The cytotoxic effects of the target compounds on U87-MG and U138-MG cell lines were assessed using the MTT (Thiazolyl Blue Tetrazolium Bromide) method. 7×10^3 cells were seeded into a 96-well plate in 100 µl DMEM High Glucose 10% FBS and 1% P/S. 24 hours after cell incubation, each target compound was added at a dose of 10 µM and the drug treatment was carried out for two days. After the incubation period, 10 µL of MTT solution was added to each well (5 mg/ml in PBS). After 2 hours, MTT solutions were removed from the wells. Then, 100 µl DMSO was added, and mixed to dissolve the formazan crystals. Cell proliferation was analysed by measuring the absorbance of dissolved formazan at a wavelength of 570 nm.
# (§2) IC50 values were determined using the same method as above wherein the cells were treated with the target compounds at different doses.
# [2] = test system: U87-MG human glioma cell; test: Cell proliferation analysis (MTT); assay type: cell-based; details: for activity at 10 µM / inhibition at 10 µM: Homo sapiens, U-87 MG, 48 h, two days, MTT
# Description: as §1, §2
Structure (SMILES),activity at 10 µM [1] [%],inhibition at 10 µM [1] [%],activity at 10 µM [2] [%],inhibition at 10 µM [2] [%],top 5 target compounds whose treatment resulted in the lowest proliferation ([2]; ranking)
O=C(COc1ccc2c(c1)CCC(=O)N2)Nc1ccc(Br)cc1 [TR-G123],109,-9,92,8,–
"O=C(COc1ccc2c(c1)CCC(=O)N2)N/N=C/c1ccccn1 [TR-G059, (E)-2-((2-oxo-1,2,3,4-tetrahydroquinolin-6-yl)oxy)-N'-(pyridin-2-ylmethylene)acetohydrazide]",81,20,79,21,–
"COc1ccc(C(=O)Oc2ccc3c(c2)CCC(=O)N3)cc1OC [TR-G008, 2-oxo-1,2,3,4-tetrahydroquinolin-6-yl 3,4-dimethoxybenzoate]",65,35,63,37,–
"O=C1CCc2cc(OCCCCc3nnnn3C3CCCCC3)ccc2N1CCCc1ccccc1 [TR-G106, 6-(4-(1-cyclohexyl-1H-tetrazol-5-yl)butoxy)-1-(3-phenylpropyl)-3,4-dihydroquinolin-2(1H)-one]",66,35,73,27,–
"Cc1cn(-c2cc(NC(=O)COc3ccc4c(c3)CCC(=O)N4)cc(C(F)(F)F)c2)cn1 [TR-G054, N-(3-(4-methyl-1H-imidazol-1-yl)-5-(trifluoromethyl)phenyl)-2-((2-oxo-1,2,3,4-tetrahydroquinolin-6-yl)oxy)acetamide]",79,21,84,16,–
"O=C1CCc2cc(OC(=O)c3cccc([N+](=O)[O-])c3)ccc2N1 [TR-G081, 2-oxo-1,2,3,4-tetrahydroquinolin-6-yl 3-nitrobenzoate]",108,-8,65,35,–
"O=C1CCc2cc(OCc3cn(-c4cccc5[nH]ncc45)nn3)ccc2N1 [TR-G078, 6-((1-(1H-indazol-4-yl)-1H-1,2,3-triazol-4-yl)methoxy)-3,4-dihydroquinolin-2(1H)-one]",57,43,44,56,top 5
"C=CCOC(=O)N1C(=O)CCc2cc(OCCCCc3nnnn3C3CCCCC3)ccc21 [TR-G114, Allyl 6-(4-(1-cyclohexyl-1H-tetrazol-5-yl)butoxy)-2-oxo-3,4-dihydroquinoline-1(2H)-carboxylate]",85,15,86,14,–
"Cc1ccc(COc2ccc3c(c2)CCC(=O)N3)cc1 [TR-G041, 6-((4-methylbenzyl)oxy)-3,4-dihydroquinolin-2(1H)-one]",74,26,70,30,–
"O=C1CCc2cc(OS(=O)(=O)c3ccc(Br)cc3)ccc2N1 [TR-G048, 2-oxo-1,2,3,4-tetrahydroquinolin-6-yl 4-bromobenzenesulfonate]",61,39,69,31,–
"CN1C(=O)/C(=N\NC(=O)COc2ccc3c(c2)CCC(=O)N3)c2cc(F)ccc21 [TR-G047, (Z)-N'-(5fluoro-1-methyl-2-oxoindolin-3-ylidene)-2-((2-oxo-1,2,3,4-tetrahydroquinolin-6-yl)oxy)acetohydrazide]",62,38,77,23,–
"O=C1CCc2cc(OC(=O)c3ccc(CCl)cc3)ccc2N1 [TR-G065, 2-oxo-1,2,3,4-tetrahydroquinolin-6-yl 4-(chloromethyl)benzoate]",90,10,73,27,–
"O=C1CCc2cc(OCC3CC(c4ccc(Cl)cc4)=NO3)ccc2N1 (stereo not drawn) [TR-G070, 6-((3-(4-chlorophenyl)-4,5-dihydroisoxazol-5-yl)methoxy)-3,4-dihydroquinolin-2(1H)-one]",79,21,68,33,–
"O=C1CCc2cc(OCc3cc(-c4ccc(F)cc4)no3)ccc2N1 [TR-G142, 6-((3-(4-fluorophenyl)isoxazol-5-yl)methoxy)-3,4-dihydroquinolin-2(1H)-one]",70,30,55,46,–
